These results are taken from paper PMC9783881, “Synthesis and Preclinical Evaluation of Small-Molecule Prostate-Specific Membrane Antigen-Targeted Abiraterone Conjugate” (Molecules, 2022).

Series [1] has as its system 22Rv1. Description: Cytotoxicity (CC50) on 22Rv1 cells. The series is classed as cell-based. The settings on record: Homo sapiens, 22Rv1, read-out: CC50, 22Rv1. On the procedure: The in vitro efficacy study of the PSMA-Abi conjugate included an assessment of its cytotoxic potential towards prostate cancer cell cultures (Table 1). […] Thus, we observed an increase in the efficacy of the conjugate towards the PSMA-expressing line. Additionally, an evaluation in a non-tumor model was performed. The toxicity of both compounds was evaluated on human adult dermal fibroblasts (HDFa); both of the agents in the tested concentrations (0.4–100 µM) were non-toxic for human fibroblasts.
22Rv1 and PC-3 cells were received from the MISIS collection of cell lines (less than ten passages from ATCC stock). All cells were cultured in humidified 37 °C incubators with 5% CO2. All cell lines were tested for the absence of mycoplasma. 22Rv1, androgen-responsive PSMA-positive human prostate carcinoma cells, were cultured in RPMI 1640 media (Gibco) with 10% FBS (Gibco), 1× GlutaMax (Gibco), and 1× Penicillin-Streptomycin (10,000 U/mL, Gibco). PC-3, PSMA-negative human prostate cancer cells, were cultured in DMEM/F12 media (Gibco) with 10% FBS (Gibco), 1× GlutaMax (Gibco), and 1× Penicillin-Streptomycin (10,000 U/mL, Gibco).

Series [2] is described as follows: Cytotoxicity on human adult dermal fibroblasts, MTT-test. It counts as cell-based. The settings on record: human, human adult dermal fibroblasts (HDFa); HDFa, 72 h, MTT. On the procedure: Human adult dermal fibroblasts (HDFa). (ATCC) were propagated in DMEM medium (Paneco) supplemented with 10% fetal calf serum (Gibco) and 1% pemicillin/streptomycin in a 5% CO2 atmosphere at 37 °C. Cytotoxicity of PSMA-Abi and AbiAc in fibroblasts were studied using MTT-test. The cells in the exponential growth phase were trypsinized, counted, and seeded at a density of 5000 cells/well in 96-well plate. Cells were incubated with both tested agents at the designated concentrations (0.4–100 μM) for 72 h; then, each well was treated with 20 μL MTT solution in PBS (5 mg/mL) and cells were incubated at least for 3 h, and formazan was dissolved in DMSO. The absorbance was measured at […] and 620 nm using Thermofischer Scientific Multiscan FC. The values for each point were calculated from 6 wells.
A general note: Tetrazolium assays rely on reduction of a dye to a coloured formazan, in cell work by metabolically active cells.

Series [3] relates to 22Rv1. Description: Single cell ROS measurement with Pt-nanoelectrodes, 22Rv1. The settings on record: 22Rv1, 1 h incubation, IC50 concentration. It counts as cell-based, human. On the procedure:
(§1) Commercially available, disk-shaped carbon nanoelectrodes isolated in quartz (ICAPPIC Limited, London, UK) with diameters of 60–100 nm were used to prepare Pt nanoelectrodes for the amperometric detection of intracellular ROS level. Preparation of Pt-nanoelectrodes has been described in detail previously.
(§2) Briefly, a disk-shaped carbon nanoelectrode was etched in a 0.1 M NaOH, 10 mM KCl solution for 20–40 cycles of 10 seconds (from 0 to +2200 mV) to create nanocavities. Electrochemical deposition of platinum in nanocavities was achieved by cycling from 0 to −800 mV with a scan rate of 200 mV s^−1 for 8 to 10 cycles in 2 mM H2PtCl6 solution in 0.1 M hydrochloric acid. […]
(§3) The setup for amperometric measurements included a PC that was connected to a system consisting of an ADC–DAC converter Axon Digidata 1550B (Axon Instruments, Burlingame, CA, USA) and patch-clamp amplifier MultiClamp 700B (Axon Instruments, USA). […] The potential difference between the Pt-nanoelectrode and the reference electrode was recorded with the pClamp 11 software suite (Molecular Devices, Silicon Valley, CA, USA) and processed with Origin 2018 software.
(§4) PC-3 (2.0 × 10^5)/22Rv1 (3.5 × 10^5) cells were seeded in 35 mm Petri dishes, incubated under the conditions described above, and then treated for 24 h. […] Untreated cells were used as a control, which was evaluated at the beginning and at the end of the experiment. […]

Series [4] concerns PC-3. Nature of the series: Single cell ROS measurement with Pt-nanoelectrodes, PC-3. The settings on record: PC-3, 1 h incubation, IC50 concentration. The series is classed as cell-based, human. On the procedure:
as §1, §2, §3, §4

Series [5] relates to 22Rv1 cells. Description: Cell cycle analysis. It counts as cell-based, human. On the procedure: Cell cycle was analyzed in 22Rv1 cells fixed in 70% ethanol with Muse® cell cycle kit. The fixation lasted overnight at −20 °C. Then, cells were collected by centrifugation at 4000 rpm for 10 min and washed with PBS. The cells were resuspended with Muse® Cell Cycle reagent and incubated for 30 min at room temperature in the dark; then, they were counted.

In series [6] the test system is 22Rv1 prostate cancer subcutaneous xenograft. Nature of the series: 22Rv1 human tumor xenograft mouse model. It counts as in vivo, Balb/c nude mice. The settings on record: 22Rv1 xenografts. On the procedure: Male, 6–8 week old Balb/c nude mice with body weight range of 20–22 g were purchased from N.N.Blokhin Cancer Research Center. Animals were kept in plastic cages equipped with lids with feeding recesses, air filters, and feed dividers at 2–3 mice per cage.
Mice were injected subcutaneously in the right and left flanks with 1 × 10^7 22Rv1 cells in RPMI-1640 medium 0.2 mL supplemented with 0.2 mL Corning Matrigel® matrix (Corning, NY, USA) in a total volume of 400 μL. When the average size of the tumors reached ~100 mm^3, mice were randomly divided into three groups, with five mice per group, including a vehicle group (1% starch paste) and two treatment groups: PSMA-Abi 500 mg/kg/day and AbiAc 200 mg/kg/day for 14 days. The drugs were administered orally, and all compounds were formulated with 1% starch paste. Following the treatment, the primary tumor size was measured twice weekly with a micro-caliper, and the tumor volume was calculated using the formula: Volume = π/6 × length × width × height. Treatment outcome was based on percentage of tumor growth inhibition (%TGI), defined as the percent difference between the median tumor volumes (MTVs) of mice in the treated and control groups. Percent TGI was calculated using the following formula: %TGI = [1 − (MTV treatment group/MTV control)] 100%. All data are presented as means ± SD. Statistical analyses of in vivo research were performed using SPSS Statistics V. 22.0, comparing continuous variables by non-parametrical Mann–Whitney U. * p ≤ 0.05 was considered as significant in comparison with the control.
(In general: In xenograft studies the graft and the host belong to different species.)

The test system of series [7] is PC-3. Further details: method as in PMID 29310026. The settings on record: PC-3 cell line; cited from earlier work.
The conditions of series [8]: mouse, in vivo; cited from earlier work.
Series [9] relates to PSMA. Further details: method as in PMID 33822606. The conditions noted are these: PSMA ligand; cited from earlier work.
Series [10] relates to PSA level. Further details: method as in PMID 22995653. The settings on record: cited from earlier work.
Where [11] appears, read: oral x14, PSMA-Abi 500, AbiAc 200 mg/kg/day.

Read-outs that look alike come from different tables or passages of the source.

Consider `CC(=O)O[C@H]1CC[C@@]2(C)C(=CC[C@@H]3[C@@H]2CC[C@]2(C)C(c4cccnc4)=CC[C@@H]32)C1` [AbiAc, abiraterone acetate, reference compound], for which the CC50 in series [1] amounted to 22.7 ± 3.3 µM. The 50% cytotoxic concentration (CC50) at 72 h in series [2] is more than 100 µM. In addition, in series [3], the “ROS (hydrogen peroxide) level in single cells” value is “significantly increased compared to the control”. Moreover, the “ROS (hydrogen peroxide) level in single cells” value in [4] was “significantly increased compared to the control”. The S cells result in [5] (22Rv1) was “unaffected”. Besides, in [5] (22Rv1, with increasing concentration), the “level of G0/G1 cells” value is recorded as “increased”. Besides, the “percentage of 22Rv1 cells in the G2/M phase” value in series [5] (with increasing concentration, compared to control cells) is reported as “decreased”. The “TGImax (tumor growth inhibition)” value in [6] (oral x14, PSMA-Abi 500 mg/kg/day, AbiAc 200 mg/kg/day, after the end of treatment) came out at 78%. In series [6] (setting [11]), the “TGI, day 15 after start of the treatment” value was 78%; the “TGI, day 18 after start of the treatment” value is 72%; the “TGI, day 22 after start of the treatment” value is recorded as 69%; the “Tumor volume (M+SE), day 15” value amounted to 547±64 mm3. Besides, in series [6] (setting [11]), the “Tumor volume (M+SE), day 18” value amounted to 811±72 mm3 and the “Tumor volume (M+SE), day 22” value is on record as 997±110 mm3. The “Tumor volume (M+SE), day 0” value in series [6] (start of treatment) came out at 91±20 mm3. The CC50 in [7] was 5.9 ± 0.8 µM. The LD50 in series [8] is reported as 800 mg/kg.
Consider `[N-]=[N+]=NCCCNC(=O)[C@H](Cc1ccc(O)cc1)NC(=O)[C@H](Cc1ccccc1)NC(=O)CCC(=O)NCCCCCC(=O)N(CCCC[C@H](NC(=O)N[C@@H](CCC(=O)O)C(=O)O)C(=O)O)Cc1cccc(Cl)c1` [PSMA ligand 1], for which the IC50 in series [9] was 0.009 ± 0.003 µM.
As for `C[C@]12CC[C@H](O)CC1=CC[C@@H]1[C@@H]2CC[C@]2(C)C(c3cccnc3)=CC[C@@H]12` [abiraterone], in [10] (chemotherapy-naïve patients), the “patients with PSA level decreased by more than 90%” value is given as 40%. The “patients with PSA level decreased by more than 50%” value was 33% in series [10] (patients after ketoconazole therapy) and 85% in series [10] (patients who had not previously received chemotherapy).
On to `O=C(O)CCC(CP(=O)(O)O)C(=O)O` (stereo not shown) [2-PMPA, 2-Phosphonomethyl pentanedioic acid, reference compound], for which the concentration for half-maximal inhibition (IC50) in series [9] was […].

What is called CC50 is the concentration giving 50% cytotoxicity. The LD50 is the dose at which mortality reaches 50%. Broadly, the IC50 is the concentration at which inhibition is half-maximal.
